Test results as given in patent US12263171B2, “7-, 8-, and 10-substituted amino triazolo quinazoline derivatives as adenosine receptor antagonists, pharmaceutical compositions and their use” (Merck Sharp & Dohme LLC, priority 2018, dated 2025).

Experiments:
[1] = target: human A2a adenosine receptor (Homo sapiens (Human), UniProt P29274); experiment: A2a receptor affinity radioligand binding assay ([3H] SCH58261, membranes from HEK293 or CHO cells); conditions: unstarred values: radioligand binding
Method in brief: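 Displacement of tritiated SCH58261 (working dilution 4 nM) from recombinant human A2a receptor membranes (HEK293 or CHO), 60 min at room temperature in Tris pH 7.4/MgCl2 buffer after 15–30 min compound preincubation. Scintillation counting after filtration; normalized percent effect fitted 4-parameter logistic for IC50.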

[2] = target: human A2b adenosine receptor (Homo sapiens (Human), UniProt P29275); experiment: A2b radioligand filtration binding assay (tritiated proprietary A2b antagonist, HEK293 membranes); conditions: for IC50: unstarred values: radioligand binding
Method in brief: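 Displacement of a tritiated proprietary A2b antagonist from membranes of HEK293 cells recombinantly expressing human A2b receptor, measured by filtration and scintillation counting. Percent effect was normalized to total and non-specific binding and fitted with a 4-parameter logistic to give IC50.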

Sequence of human A2a adenosine receptor (P29274 whole entry): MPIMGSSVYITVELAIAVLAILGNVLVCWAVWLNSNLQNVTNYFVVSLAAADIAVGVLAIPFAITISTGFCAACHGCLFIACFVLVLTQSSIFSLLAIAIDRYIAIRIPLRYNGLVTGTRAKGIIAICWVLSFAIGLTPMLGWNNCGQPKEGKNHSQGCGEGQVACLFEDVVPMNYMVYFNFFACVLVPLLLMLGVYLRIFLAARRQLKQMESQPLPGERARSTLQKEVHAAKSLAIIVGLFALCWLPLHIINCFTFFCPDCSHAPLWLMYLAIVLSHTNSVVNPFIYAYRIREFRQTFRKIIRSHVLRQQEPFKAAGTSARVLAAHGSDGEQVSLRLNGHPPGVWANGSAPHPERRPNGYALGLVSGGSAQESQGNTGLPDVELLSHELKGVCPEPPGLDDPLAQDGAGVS
Sequence of human A2b adenosine receptor (P29275 whole entry): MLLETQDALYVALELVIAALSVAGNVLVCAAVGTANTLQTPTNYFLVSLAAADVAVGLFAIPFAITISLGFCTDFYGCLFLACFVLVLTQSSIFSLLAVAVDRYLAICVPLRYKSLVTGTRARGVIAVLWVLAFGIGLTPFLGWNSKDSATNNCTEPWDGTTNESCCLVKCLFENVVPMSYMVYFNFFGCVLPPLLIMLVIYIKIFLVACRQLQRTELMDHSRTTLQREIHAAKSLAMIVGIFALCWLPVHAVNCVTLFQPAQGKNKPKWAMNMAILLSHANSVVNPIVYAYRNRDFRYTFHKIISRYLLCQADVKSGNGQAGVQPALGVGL

Row | Compound | IC50 [1] [nM] | IC50 [2] [nM] | A2B binding % inh. @ 10000 nM ([2]; @ 10000 nM, unstarred) [% inh. @ 10000 nM]
1 | COc1cccc2c1nc(N)n1nc([C@@H]3CCCN(c4cnn(C5CCCC5(C)O)c4)C3)nc21 (single isomer, unassigned) [Example 59A] | 0.4 | 6.3 | –
2 | Cn1cc(N2CCCC(c3nc4c5ccc(F)cc5nc(N)n4n3)C2)cn1 (single isomer, unassigned) [Example 168, (R or S)-8-fluoro-2-(1-(1-methyl-1H-pyrazol-4-yl)piperidin-3-yl)-[1,2,4]triazolo[1,5-c]quinazolin-5-amine] | 17.4 | 150 | –
3 | COc1cccc2c1nc(N)n1nc([C@@H]3CCCN(c4cnn(C5CCOCC5)n4)C3)nc21 [Example 72, (R)-7-methoxy-2-(1-(2-(tetrahydro-2H-pyran-4-yl)-2H-1,2,3-triazol-4-yl)piperidin-3-yl)-[1,2,4]triazolo[1,5-c]quinazolin-5-amine] | 0.9 | 119 | –
4 | COc1ccc2c(c1)nc(N)n1nc([C@@H]3CCCN(c4cnc(OC(F)F)c(C)c4)C3)nc21 [Example 190, (R)-2-(1-(6-(difluoromethoxy)-5-methylpyridin-3-yl)piperidin-3-yl)-8-methoxy-[1,2,4]triazolo[1,5-c]quinazolin-5-amine] | 10.1 | 480 | –
5 | COc1cccc2c1nc(N)n1nc([C@@H]3CCCN(c4ncn(C5CCOCC5)n4)C3)nc21 [Example 68, (R)-7-methoxy-2-(1-(1-(tetrahydro-2H-pyran-4-yl)-1H-1,2,4-triazol-3-yl)piperidin-3-yl)-[1,2,4]triazolo[1,5-c]quinazolin-5-amine] | 0.3 | 340 | –
6 | COc1cccc2c1nc(N)n1nc([C@@H]3CCCN(c4ccc(=O)n(C)c4)C3)nc21 [Example 88, (R)-5-(3-(5-amino-7-methoxy-[1,2,4]triazolo[1,5-c]quinazolin-2-yl)piperidin-1-yl)-1-methylpyridin-2(1H)-one] | 2 | 295 | –
7 | COc1cccc2c1nc(N)n1nc([C@@H]3CCCN(c4nccn4C)C3)nc21 [Example 81, (R)-7-methoxy-2-(1-(1-methyl-1H-imidazol-2-yl)piperidin-3-yl)-[1,2,4]triazolo[1,5-c]quinazolin-5-amine] | 1.4 | 813 | –
8 | COc1ccc2c(c1)nc(N)n1nc([C@@H]3CC[C@H](C)N(c4cnn(CC(C)(C)O)c4)C3)nc21 [Example 204, 1-(4-((2S,5R)-5-(5-amino-8-methoxy-[1,2,4]triazolo[1,5-c]quinazolin-2-yl)-2-methylpiperidin-1-yl)-1H-pyrazol-1-yl)-2-methylpropan-2-ol] | 0.4 | 1.1 | –
9 | COc1cccc2c1nc(N)n1nc(C3CN(c4cnn(CC5(O)CCC5)c4)CC(F)(F)C3)nc21 (single isomer, unassigned) [Example 157B, (R or S)-1-((4-(5-(5-amino-7-methoxy-[1,2,4]triazolo[1,5-c]quinazolin-2-yl)-3,3-difluoropiperidin-1-yl)-1H-pyrazol-1-yl)methyl)cyclobutan-1-ol] | 0.7 | 512 | –
10 | COc1cccc2c1nc(N)n1nc(C3CC(F)CN(c4cn(CC(C)(C)O)nc4C)C3)nc21 (stereo not shown) [Example 151, 1-(4-(3-(5-amino-7-methoxy-[1,2,4]triazolo[1,5-c]quinazolin-2-yl)-5-fluoropiperidin-1-yl)-3-methyl-1H-pyrazol-1-yl)-2-methylpropan-2-ol] | 210 | – | 27
11 | COc1cccc2c1nc(N)n1nc([C@@H]3CCCN(c4cnn(C5CCCC5O)c4)C3)nc21 (single isomer, unassigned) [Example 58B] | 0.2 | 34.9 | –
12 | COc1cccc2c1nc(N)n1nc([C@@H]3CCCN(c4nn(C)nc4C)C3)nc21 [Example 70, (R)-2-(1-(2,5-dimethyl-2H-1,2,3-triazol-4-yl)piperidin-3-yl)-7-methoxy-[1,2,4]triazolo[1,5-c]quinazolin-5-amine] | 0.8 | 151 | –
13 | COc1cccc2c1nc(N)n1nc([C@@H]3CCCN(c4ccc(=O)n(C(F)F)c4)C3)nc21 [Example 92, (R)-5-(3-(5-amino-7-methoxy-[1,2,4]triazolo[1,5-c]quinazolin-2-yl)piperidin-1-yl)-1-(difluoromethyl)pyridin-2(1H)-one] | 0.7 | 196 | –
14 | CCn1cc(N2C[C@@H](c3nc4c5cccc(OC)c5nc(N)n4n3)CC[C@H]2C)cn1 (single isomer, unassigned) [Example 140A] | 66.8 | 5510 | –
15 | COc1cccc2c1nc(N)n1nc([C@@H]3CCN(c4cnn(CC5CC5)c4)C3)nc21 [Example 162, (R)-2-(1-(1-(cyclopropylmethyl)-1H-pyrazol-4-yl)pyrrolidin-3-yl)-7-methoxy[1,2,4]triazolo[1,5-c]quinazolin-5-amine] | 7.8 | 17.6 | –
16 | COc1ccc2c(c1)nc(N)n1nc([C@@H]3CC[C@H](C)N(c4cnn([C@H](C)C(C)(C)O)c4)C3)nc21 [Example 211B, (R)-3-(4-((2S,5R)-5-(5-amino-8-methoxy-[1,2,4]triazolo[1,5-c]quinazolin-2-yl)-2-methylpiperidin-1-yl)-1H-pyrazol-1-yl)-2-methylbutan-2-ol] | 0.6 | 16.1 | –
17 | COc1ccc2c(c1)nc(N)n1nc([C@@H]3CC[C@H](C)N(c4cnn(C5CCC[C@H]5O)c4)C3)nc21 (stereo partly shown) [Example 210A] | 0.2 | 4.8 | –
18 | COc1cccc2c1nc(N)n1nc([C@@H]3CCCN(c4cnn(C5CCOCC5)c4C)C3)nc21 [Example 47, (R)-7-methoxy-2-(1-(5-methyl-1-(tetrahydro-2H-pyran-4-yl)-1H-pyrazol-4-yl)piperidin-3-yl)-[1,2,4]triazolo[1,5-c]quinazolin-5-amine] | 0.1 | 223 | –
19 | COc1ccc2c(c1)nc(N)n1nc([C@@H]3CCCN(c4cnn([C@@H](C)C(C)(C)O)c4C)C3)nc21 [Example 189B, (S)-3-(4-((R)-3-(5-amino-8-methoxy-[1,2,4]triazolo[1,5-c]quinazolin-2-yl)piperidin-1-yl)-5-methyl-1H-pyrazol-1-yl)-2-methylbutan-2-ol] | 0.7 | 291 | –
20 | Cc1ccc2c(c1)nc(N)n1nc(C3CCCN(c4cnn(C)c4)C3)nc21 (single isomer, unassigned) [Example 199, (R or S)-8-methyl-2-(1-(1-methyl-1H-pyrazol-4-yl)piperidin-3-yl)-[1,2,4]triazolo[1,5-c]quinazolin-5-amine] | 22.5 | 257 | –
21 | Cn1cc(N2CCCC(c3nc4c5c(Cl)ccc(Cl)c5nc(N)n4n3)C2)cn1 (single isomer, unassigned) [Example 169, (R or S)-7, 10-dichloro-2-(1-(1-methyl-1H-pyrazol-4-yl)piperidin-3-yl)-[1,2,4]triazolo[1,5-c]quinazolin-5-amine] | 7.7 | 4160 | –
22 | COc1cccc2c1nc(N)n1nc([C@@H]3CCCN(c4cnn(C5CCCC5O)c4)C3)nc21 (stereo partly shown) [Example 58A] | 0.2 | 64.9 | –
23 | Cc1cccc2c1nc(N)n1nc(C3CCCN(c4cnn(C)c4)C3)nc21 (single isomer, unassigned) [Example 171, (R or S)-7-methyl-2-(1-(1-methyl-1H-pyrazol-4-yl)piperidin-3-yl)-[1,2,4]triazolo[1,5-c]quinazolin-5-amine] | 34.9 | 956 | –
